Experimental data taken from US9409952B2, “Peptide-compound cyclization method” (Chugai Seiyaku Kabushiki Kaisha, priority 2011, dated 2016).
Read-outs that look alike come from different tables or passages of the source. Starred links: 1 amine or outer side, 2 acyl side, 3 side chain; linkers in the order of their positions; H or OH if unused. Positions of bridges follow the written chain, without caps; N, C: chain ends. Non-standard residues stand in square brackets, D forms with d. Residues, ends and D or L forms follow the SMILES beside them. *: point of attachment. Phe(4-(CH2)5CO) = O=C([C@H](Cc1ccc(CCCCCC(=O)[*:3])cc1)N[*:1])[*:2]; hhPhe = N[C@@H](CCCc1ccccc1)C(=O)O; NMeF = CN[C@@H](Cc1ccccc1)C(=O)O; NMeGABA = CN(CCCC(=O)[*:2])[*:1]; NMeI = CC[C@H](C)[C@H](NC)C(=O)O; NMeβAla = CN(CCC(=O)[*:2])[*:1]; NMeL = CN[C@@H](CC(C)C)C(=O)O; Phg = N[C@H](C(=O)O)c1ccccc1; NMeV = CN[C@H](C(=O)O)C(C)C; NMeA = CN[C@@H](C)C(=O)O; Piperidide = C1CCN(*)CC1; dNMeA = CN[C@H](C)C(=O)O; Sar = CNCC(=O)O; tBu = CC(C)(C)*

What was measured:
[1] = PAMPA (parallel artificial membrane permeability assay); type: in vitro ADME; settings: PAMPA
Summary of the method: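 Artificial membrane was 10% (w/v) egg lecithin plus 0.5% (w/v) cholesterol in dodecane on a PVDF filter. A 10 mM DMSO stock was added at 0.5% (v/v) to donor buffer (50 mM MOPSO, pH 6.5, 5.0% glycocholic acid). After 18 h at 37 °C, LC/MS or LC/UV gave donor and acceptor levels for Pe.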

[2] = Metabolic stability in human hepatic microsome; type: in vitro ADME; settings: microsomes
[3] = membrane permeation rate (Pe), 50 mM MOPSO buffer pH 6.5 with 5.0% glycocholic acid, 37° C., 18 hours, read-out: iPAMPA Pe
[4] = pH 7.4, human hepatic microsome, NADPH(+), read-out: CL NADPH(+)

Structure (SMILES) | Papp at 18 hours, 50 µM ([1]; pH 6.5) [nm/s] | microsomal CLint at 1 uM ([2]; human, pH 7.4, CL NADPH(+)) [µL/min/mg] | Papp at 18 hours, 50 µM [1, 3] [nm/s] | microsomal CLint at 1 uM [2, 4] [µL/min/mg]
CC[C@H](C)[C@H](NC(=O)[C@H](C)N(C)C(=O)[C@@H]1CC(=O)N[C@@H](C)C(=O)N[C@@H]([C@@H](C)CC)C(=O)N(C)[C@@H](C)C(=O)N(C)[C@@H](Cc2ccccc2)C(=O)N[C@@H]([C@@H](C)O)C(=O)N(C)[C@@H](Cc2ccccc2)C(=O)N[C@@H](CC(C)C)C(=O)N2CCC[C@H]2C(=O)N1)C(=O)N1CCCCC1 [DP-668] (AI[NMeA][NMeF]T[NMeF]LPD[NMeA]I-Piperidide; lactam N-9) | 260 | 142 | – | –
CC[C@H](C)[C@H](NC(=O)[C@H](CC(C)C)NC(=O)[C@H](CC(C)C)N(C)C(=O)[C@@H](NC(=O)[C@@H]1CCCN1C(=O)[C@@H]1CC(=O)N(C)CCC(=O)N[C@@H](CC(C)C)C(=O)N(C)[C@@H](CC(C)C)C(=O)N[C@@H]([C@@H](C)O)C(=O)N(C)[C@@H](C)C(=O)N[C@@H]([C@@H](C)CC)C(=O)N(C)[C@@H](CC(C)C)C(=O)N(C)[C@@H](CC(C)C)C(=O)N1)[C@@H](C)CC)C(=O)N1CCCCC1 [DP-937] ([NMeβAla]L[NMeL]T[NMeA]I[NMeL][NMeL]DPI[NMeL]LI-Piperidide; lactam N-9) | – | – | 4.7 | 164
CC[C@H](C)[C@H]1C(=O)N[C@@H](CC(C)C)C(=O)N(C)[C@@H](CC(C)C)C(=O)N[C@H](C(=O)N2CCCCC2)CC(=O)N(C)CCCC(=O)N(C)[C@@H](CC(C)C)C(=O)N[C@@H]([C@@H](C)O)C(=O)N(C)[C@@H](C)C(=O)N[C@@H](C)C(=O)N(C)[C@@H](Cc2ccccc2)C(=O)N(C)[C@@H](Cc2ccccc2)C(=O)N1C [DP-249] ([NMeGABA][NMeL]T[NMeA]A[NMeF][NMeF][NMeI]L[NMeL]D-Piperidide; lactam N-11) | – | – | 340 | 151
CC[C@H](C)[C@H]1C(=O)N(C)[C@@H](C)C(=O)N(C)[C@@H](CC(C)C)C(=O)N[C@@H](COC(C)(C)C)C(=O)N(C)[C@@H](CC(C)C)C(=O)N[C@H](C(=O)N2CCCCC2)CC(=O)N(C)[C@@H](C)C(=O)N(C)[C@@H](Cc2ccccc2)C(=O)N[C@@H](C)C(=O)N(C)[C@@H](CC(C)C)C(=O)N[C@@H]([C@@H](C)O)C(=O)N[C@@H](Cc2ccccc2)C(=O)N1C [DP-90] ([NMeA][NMeF]A[NMeL]TF[NMeI][NMeA][NMeL]S(tBu)[NMeL]D-Piperidide; lactam N-12) | – | – | 91 | 30
CC(C)C[C@H]1C(=O)N(C)[C@@H](CC(C)C)C(=O)N[C@@H](C)C(=O)N(C)[C@@H](CC(C)C)C(=O)N(C)[C@@H](Cc2ccccc2)C(=O)N(C)[C@@H](Cc2ccccc2)C(=O)N[C@@H]([C@@H](C)O)C(=O)N(C)[C@@H](C)C(=O)N(C)[C@@H](CC(C)C)C(=O)N[C@H](C(=O)N2CCCCC2)Cc2ccc(cc2)CCCCCC(=O)N1C [DP-858] ([NMeL][NMeL]A[NMeL][NMeF][NMeF]T[NMeA][NMeL][Phe(4-(CH2)5CO)]-Piperidide; lactam N-10) | – | – | 10 | 77
CC(C)C[C@H]1C(=O)N(C)[C@@H](C(C)C)C(=O)N[C@@H](C(C)C)C(=O)N[C@H](C(=O)N(C)[C@@H](Cc2ccccc2)C(=O)N[C@@H](C)C(=O)N2CCCCC2)CC(=O)N[C@@H](C)C(=O)N[C@@H](Cc2ccccc2)C(=O)N(C)[C@@H](CC(C)C)C(=O)N[C@@H]([C@@H](C)O)C(=O)N(C)[C@@H](Cc2ccccc2)C(=O)NCC(=O)N1C [DP-187] (AF[NMeL]T[NMeF]G[NMeL][NMeV]VD[NMeF]A-Piperidide; lactam N-10) | – | – | 430 | 22
C=C1CCC(=O)N[C@@H](CC(C)C)C(=O)N2CCC[C@H]2C(=O)N(C)[C@@H](C(C)C)C(=O)N[C@@H](Cc2ccccc2)C(=O)N(C)[C@@H](Cc2ccccc2)C(=O)N(C)[C@@H](CC(C)C)C(=O)N[C@@H](C)C(=O)N(C)[C@@H]([C@@H](C)CC)C(=O)N[C@H](C(=O)N2CCCCC2)Cc2ccc1cc2 [DP-869] | – | – | 8.6 | 331
CC(C)C[C@@H]1NC(=O)[C@H](Cc2ccccc2)N(C)C(=O)[C@H](CC(C)C)N(C)C(=O)CCN(C)C(=O)C[C@@H](C(=O)N2CCCCC2)NC(=O)[C@H](CC(C)C)N(C)C(=O)[C@H](Cc2ccccc2)N(C)C(=O)[C@H]([C@@H](C)O)NC(=O)[C@H](Cc2ccccc2)N(C)C1=O [DP-126] ([NMeβAla][NMeL][NMeF]L[NMeF]T[NMeF][NMeL]D-Piperidide; lactam N-9) | – | – | 540 | 239
CC(C)C[C@@H]1NC(=O)[C@H](CC(C)C)N(C)C(=O)C[C@@H](C(=O)N2CCCCC2)NC(=O)[C@H](CC(C)C)N(C)C(=O)[C@H](C)N(C)C(=O)[C@H]([C@@H](C)O)NC(=O)[C@H](CC(C)C)N(C)C(=O)[C@H](Cc2ccccc2)N(C)C(=O)[C@H](Cc2c[nH]cn2)NC(=O)[C@H](Cc2ccccc2)N(C)C(=O)[C@H](CC(C)C)N(C)C1=O [DP-906] ([NMeL]L[NMeL][NMeF]H[NMeF][NMeL]T[NMeA][NMeL]D-Piperidide; lactam N-11) | – | – | 6.5 | 49
CC[C@H](C)[C@H]1C(=O)N(C)[C@@H](CC(C)C)C(=O)N(C)[C@@H](Cc2ccccc2)C(=O)N[C@@H]([C@@H](C)O)C(=O)N(C)[C@@H](Cc2ccccc2)C(=O)N(C)[C@@H](CC(C)C)C(=O)N(C)[C@@H](C)C(=O)N[C@H](C(=O)N2CCCCC2)CC(=O)N[C@H](C)C(=O)N[C@@H](C)C(=O)N(C)[C@@H](CC(C)C)C(=O)N1C [DP-99] ([dA]A[NMeL][NMeI][NMeL][NMeF]T[NMeF][NMeL][NMeA]D-Piperidide; lactam N-11) | 560 | 52 | – | –
CC(C)C[C@H]1C(=O)N[C@H](C(=O)N2CCCCC2)CC(=O)N(C)CCC(=O)N[C@@H]([C@@H](C)O)C(=O)N(C)[C@@H](C)C(=O)N[C@@H](COC(C)(C)C)C(=O)N(C)[C@@H](Cc2ccccc2)C(=O)N1C [DP-532] ([NMeβAla]T[NMeA]S(tBu)[NMeF][NMeL]D-Piperidide; lactam N-7) | – | – | 200 | 105
CC[C@H](C)[C@H]1C(=O)N[C@H](C(=O)N2CCCCC2)CC(=O)N(C)[C@H](C)C(=O)N(C)[C@@H](C(C)C)C(=O)N[C@@H](Cc2ccccc2)C(=O)N[C@@H](CC(C)C)C(=O)N(C)[C@@H](C)C(=O)N[C@@H]([C@@H](C)O)C(=O)N[C@@H](Cc2ccccc2)C(=O)N(C)[C@@H](CC(C)C)C(=O)N[C@@H](CC(C)C)C(=O)NCC(=O)N1C [DP-223] ([dNMeA][NMeV]FL[NMeA]TF[NMeL]LG[NMeI]D-Piperidide; lactam N-12) | – | – | 230 | 42
CC[C@H](C)[C@@H]1NC(=O)[C@H](CC(C)C)N(C)C(=O)[C@H](CC(C)C)N(C)C(=O)CN(C)C(=O)[C@H]([C@@H](C)O)NC(=O)[C@H](CC(C)C)N(C)C(=O)[C@H](CC(C)C)NC(=O)CCN(C)C(=O)C[C@@H](C(=O)N2CCCCC2)NC(=O)[C@H](C)NC(=O)[C@H](Cc2ccccc2)N(C)C(=O)[C@H](Cc2ccccc2)NC(=O)[C@H](CC(C)C)N(C)C1=O [DP-957] ([NMeβAla]L[NMeL]T[Sar][NMeL][NMeL]I[NMeL]F[NMeF]AD-Piperidide; lactam N-13) | – | – | 40 | 54
CC(C)C[C@H]1C(=O)NCC(=O)N[C@H](C(=O)N2CCCCC2)CC(=O)N[C@@H](c2ccccc2)C(=O)N[C@@H]([C@@H](C)O)C(=O)N(C)[C@@H](C)C(=O)N(C)[C@@H](Cc2ccccc2)C(=O)N(C)[C@@H](Cc2ccccc2)C(=O)N[C@@H](COC(C)(C)C)C(=O)N1C [DP-563] ([Phg]T[NMeA][NMeF][NMeF]S(tBu)[NMeL]GD-Piperidide; lactam N-9) | – | – | 350 | 111
CC[C@H](C)[C@H]1C(=O)N[C@H](C(=O)N2CCCCC2)CC(=O)N[C@@H](C)C(=O)N(C)[C@@H](Cc2ccccc2)C(=O)N(C)[C@@H](CC(C)C)C(=O)N[C@@H]([C@@H](C)O)C(=O)N(C)CC(=O)N(C)[C@@H](CC(C)C)C(=O)N[C@@H](COC(C)(C)C)C(=O)N1C [DP-37] (A[NMeF][NMeL]T[Sar][NMeL]S(tBu)[NMeI]D-Piperidide; lactam N-9) | 310 | 156 | – | –
CC(C)C[C@H]1C(=O)NCC(=O)N[C@H](C(=O)N2CCCCC2)CC(=O)N[C@H](C)C(=O)N[C@@H]([C@@H](C)O)C(=O)N(C)[C@@H](C)C(=O)N(C)[C@@H](Cc2ccccc2)C(=O)N[C@@H](COC(C)(C)C)C(=O)N(C)[C@@H](Cc2ccccc2)C(=O)N1C [DP-52] ([dA]T[NMeA][NMeF]S(tBu)[NMeF][NMeL]GD-Piperidide; lactam N-9) | 230 | 136 | – | –
CC(C)C[C@H]1C(=O)N[C@H](C(=O)N2CCCCC2)CC(=O)N(C)[C@H](C)C(=O)N(C)[C@@H](Cc2ccccc2)C(=O)N(C)[C@@H](CC(C)C)C(=O)N[C@@H]([C@@H](C)O)C(=O)N(C)CC(=O)N[C@@H](COC(C)(C)C)C(=O)N1C [DP-527] ([dNMeA][NMeF][NMeL]T[Sar]S(tBu)[NMeL]D-Piperidide; lactam N-8) | – | – | 110 | 30
CC[C@H](C)[C@@H]1NC(=O)[C@H](Cc2ccccc2)N(C)C(=O)[C@H](CCCc2ccccc2)NC(=O)[C@H](C(C)C)N(C)C(=O)[C@H](CC(C)C)N(C)C(=O)[C@H](CC(C)C)NC(=O)[C@@H](C)NC(=O)C[C@@H](C(=O)N2CCCCC2)NC(=O)[C@H]([C@@H](C)O)NC(=O)[C@H](C)NC(=O)[C@H](C)N(C)C1=O [DP-731] ([dA]L[NMeL][NMeV][hhPhe][NMeF]I[NMeA]ATD-Piperidide; lactam N-11) | – | – | 480 | 53
